# Test results from US20230405028A1 (priority 2020, published 2023).
# Where two headings read alike, the source gives them in different places.
# Assays:
# [1] = tested on: A-172 glioblastoma cells; test: MTT cell viability assay in A-172 cells; details: Psilocybin + Eugenol section, 25 μM EUG
# [2] = tested on: Human primary small intestinal epithelial cells (HSIEC)
# [3] = tested on: COX-2; test: COX-2 in HSIEC cells treated with TNF-α/IFN-γ (western blot, densitometry); format: cell-based, human; details: single agent, escalating doses
# Protocol: Cell Culture: Human primary small intestinal epithelial cells (HSIEC), purchased from Cell Biologics were cultured in Epithelial Cell Medium/w Kit. HSIEC cells were incubated at 37° C. in a humidified atmosphere of 5% CO2. HSIEC cells were treated with mycoplasma removal reagent BM-Cyclin (Roche) to ensure mycoplasma negative before treatment.
# To do so, COX-2, an enzyme which mediates the bioconversion of arachidonic acid to inflammatory prostaglandins (PGs), was measured via densitometry. GAPDH was used as a reference housekeeping marker for relative densitometry measures. […] Ethanol or DMSO was used, as indicated in the figures, as a vehicle for dilution and as a negative control showing the amount of the inflammatory marker present when inflammation was not induced.
# Increasing doses of each molecule of interest, or each combination of molecules of interest, were then distributed to the HSIEC cells treated to induce inflammatory response. Inflammatory markers COX-2 and/or IL-6 were assessed at specific timepoints after induction of inflammation for protein content marker measured via western blot. GAPDH was used as a reference housekeeping marker for relative densitometry measures of protein content.
compound,measurement,setting,value
C=CCc1ccc(O)c(OC)c1 [EUG],Cellular Metabolic Activity,[1]; 24 h,0.202
same,Cellular Metabolic Activity,[1]; 48 h,0.297
same,Cellular Metabolic Activity,[1]; 72 h,0.473
same,Cellular Metabolic Activity,[1]; 96 h,0.319
same,Cellular Metabolic Activity,[1]; time 0,0.134
COc1cc(CNC(=O)CCCC/C=C/C(C)C)ccc1O [capsaicin],"effect on cell growth / cellular metabolic activity (MTT, words)",[2],All initial doses of capsaicin were found to be inhibitory
same,Cellular Metabolic Activity,"[2]; 0.5 μM, 24 h",0.088
same,Cellular Metabolic Activity,"[2]; 0.5 μM, 48 h",0.154
same,Cellular Metabolic Activity,"[2]; 0.5 μM, 72 h",0.288
same,Cellular Metabolic Activity,"[2]; 0.5 μM, 96 h",0.469
same,Cellular Metabolic Activity,"[2]; 0.5 μM, time 0",0.068
same,Cellular Metabolic Activity,"[2]; 1 μM, 24 h",0.084
same,Cellular Metabolic Activity,"[2]; 1 μM, 48 h",0.150
same,Cellular Metabolic Activity,"[2]; 1 μM, 72 h",0.326
same,Cellular Metabolic Activity,"[2]; 1 μM, 96 h",0.502
same,Cellular Metabolic Activity,"[2]; 1 μM, time 0",0.066
same,Cellular Metabolic Activity,"[2]; 5 μM, 24 h",0.080
same,Cellular Metabolic Activity,"[2]; 5 μM, 48 h",0.148
same,Cellular Metabolic Activity,"[2]; 5 μM, 72 h",0.296
same,Cellular Metabolic Activity,"[2]; 5 μM, 96 h",0.477
same,Cellular Metabolic Activity,"[2]; 5 μM, time 0",0.068
same,Cellular Metabolic Activity,"[2]; 10 μM, 24 h",0.075
same,Cellular Metabolic Activity,"[2]; 10 μM, 48 h",0.174
same,Cellular Metabolic Activity,"[2]; 10 μM, 72 h",0.331
same,Cellular Metabolic Activity,"[2]; 10 μM, 96 h",0.708
same,Cellular Metabolic Activity,"[2]; 10 μM, time 0",0.040
same,Cellular Metabolic Activity,"[2]; 50 μM, 24 h",0.062
same,Cellular Metabolic Activity,"[2]; 50 μM, 48 h",0.155
same,Cellular Metabolic Activity,"[2]; 50 μM, 72 h",0.292
same,Cellular Metabolic Activity,"[2]; 50 μM, 96 h",0.681
same,Cellular Metabolic Activity,"[2]; 50 μM, time 0",0.036
same,Cellular Metabolic Activity,"[2]; 100 μM, 24 h",0.063
same,Cellular Metabolic Activity,"[2]; 100 μM, 48 h",0.150
same,Cellular Metabolic Activity,"[2]; 100 μM, 72 h",0.272
same,Cellular Metabolic Activity,"[2]; 100 μM, 96 h",0.623
same,Cellular Metabolic Activity,"[2]; 100 μM, time 0",0.036
same,Cellular Metabolic Activity,"[2]; 200 μM, 24 h",0.044
same,Cellular Metabolic Activity,"[2]; 200 μM, 48 h",0.082
same,Cellular Metabolic Activity,"[2]; 200 μM, 72 h",0.144
same,Cellular Metabolic Activity,"[2]; 200 μM, 96 h",0.231
same,Cellular Metabolic Activity,"[2]; 200 μM, time 0",0.040
same,Cellular Metabolic Activity,"[2]; 400 μM, 24 h",0.016
same,Cellular Metabolic Activity,"[2]; 400 μM, 48 h",0.031
same,Cellular Metabolic Activity,"[2]; 400 μM, 72 h",0.016
same,Cellular Metabolic Activity,"[2]; 400 μM, 96 h",0.018
same,Cellular Metabolic Activity,"[2]; 400 μM, time 0",0.039
same,Cellular Metabolic Activity,"[2]; 800 μM, 24 h",0
same,Cellular Metabolic Activity,"[2]; 800 μM, 48 h",0
same,Cellular Metabolic Activity,"[2]; 800 μM, 72 h",0
same,Cellular Metabolic Activity,"[2]; 800 μM, 96 h",0
same,Cellular Metabolic Activity,"[2]; 800 μM, time 0",0.041
same,doses showing no effect (MTT),[2]; human,< 10 µM
"O=C(c1ccc(F)cc1)C1CCN(CCn2c(=O)[nH]c3ccccc3c2=O)CC1 [ketanserin, reference compound]",doses resulting in reduction of COX-2,[3],none of the doses
same,concentration above which inhibitory effect / significant toxicity (MTT),[2]; human,above 20 μM
